The target of assay [1] is T1, PKA catalytic subunit (Homo sapiens, UniProt P17612). Particulars: parent peptide, cited from earlier work. Here is the method:
Table 1 Phosphorylation of N^β-methylated peptidomimetic substrates by PKA catalytic subunit at ATP concentration 100 μM, 30°C, 50 mM TRIS/HCl, pH 7 | column: Km (μM); 10^2 kcat (μmole mg^-1 s^-1); 10^2 kII (L mg^-1 s^-1)

Assay [2] deals with T1, PKA catalytic subunit. Nature of the assay: PKA-catalyzed phosphorylation of peptide/peptidomimetic substrates, [γ-32P]ATP, phosphocellulose paper binding. As to conditions: ATP 100 μM, 30°C, 50 mM TRIS/HCl, pH 7; for 10^2 kcat: Michaelis-Menten fit, value is kcat multiplied by 10^2; for 10^2 kII (second order rate constant): from the initial linear part of the Michaelis-Menten plot, value is kII multiplied by 10^2; for Km: substrate phosphorylation by PKA catalytic subunit, Michaelis-Menten fit of initial velocities, substrate concentration varied. The class given is biochemical. Here is the method:
The phosphorylation reactions followed the classical Michaelis-Menten rate equation and therefore all substrates were characterized by the Km and kcat values, which correspond to the constant ATP concentration of 0.1 mM. The initial linear part of the Mihaelis-Menten plot was used for the calculation of the second order rate constants kII as described in [10] and these values are also listed in Table 1. Agreement between the parameters kII and values of the ratio of kcat/Km for substrates confirms the applicability of the Michelis-Menten rate equation for the description of the kinetic data.
The method of kinetic measurements was described in our previous article and was based on utilizing the radioactive ATP with [^32P]phosphate in γ-position. The phosphorylated substrates were bound onto Whatman phosphocellulose paper and the paper-bound radioactivity was counted. Linear plots between filter-bound radioactivity and time were used for calculating the initial velocity values of the phosphorylation reaction, which were thereafter processed by the classical Michaelis-Menten rate equation. Kinetic experiments were made at constant ATP concentration (100 μM) and the Km and kcat values were calculated for peptidomimetic substrates, concentrations of which were varied in the reaction mixture.

Where two headings read alike, the source gives them in different places.

These results are taken from article PMC3305904, “N^β-methylation changes the recognition pattern of aza-β^3-amino acid containing peptidomimetic substrates by protein kinase A” (Organic and Medicinal Chemistry Letters, 2011).

For the substance RRASVA, in assay [1] (phosphorylation by PKA), the Km was 11.1 ± 3.5 µM. In assay [1] (value is kII multiplied by 10^2), the “10^2 kII (second order rate constant)” value was 3.2 ± 0.1 L mg^-1 s^-1. Further, the “10^2 kcat” value in assay [1] (value is kcat multiplied by 10^2) is 36 ± 3 μmole mg^-1 s^-1.

As for “RRASVA [I, RRASVA analog with one N^β-Me-aza-β^3-amino acid residue; likely the N-terminal Arg]”, in assay [2], the “10^2 kcat” value is listed as 24.4 ± 1.5 μmole mg^-1 s^-1, the “10^2 kII (second order rate constant)” value worked out at 0.098 ± 0.010 L mg^-1 s^-1 and the Km came to 209 ± 24 µM.

In the case of “RRASVA [II, RRASVA analog with one N^β-Me-aza-β^3-amino acid residue; likely the second Arg]”, in assay [2], the “10^2 kcat” value is reported as 11.9 ± 1.0 μmole mg^-1 s^-1, the “10^2 kII (second order rate constant)” value turned out to be 0.11 ± 0.07 L mg^-1 s^-1 and the Km worked out at 79 ± 18 µM.

As to “RRASVA [III, RRASVA analog with one N^β-Me-aza-β^3-amino acid residue; likely Ala at position -1]”, in assay [2], the “10^2 kcat” value is listed as 5.5 ± 0.3 μmole mg^-1 s^-1, the “10^2 kII (second order rate constant)” value is given as 0.034 ± 0.005 L mg^-1 s^-1 and the Km turned out to be 91 ± 15 µM.

With “RRASVA [IV, RRASVA analog with one N^β-Me-aza-β^3-amino acid residue; likely Val]”, in assay [2], the “10^2 kcat” value was 16 ± 2.0 μmole mg^-1 s^-1, the “10^2 kII (second order rate constant)” value was determined as 0.12 ± 0.02 L mg^-1 s^-1 and the Km came to 118 ± 36 µM.

Turning to “RRASVA [RRASVA analog with one N^β-Me-aza-β^3-amino acid residue; likely the C-terminal Ala]”, in assay [2], the “10^2 kcat” value stood at 5.0 ± 0.4 μmole mg^-1 s^-1, the “10^2 kII (second order rate constant)” value was found to be 0.090 ± 0.015 L mg^-1 s^-1 and the Km came to 57 ± 17 µM.

A word on the Km: it is the concentration of substrate that gives half-maximal velocity.
